Test results from US11724999B2, “Inhibitors of RAS-effector protein interactions” (Oxford University Innovation Limited, priority 2018, dated 2023).

These molecules were tested against T1, GST-human KRas166 (G12V) GPPNHP (Homo sapiens, UniProt P01116, G12V) (assay: KRas small-molecule screening by SPR (BIACORE T200)). Conditions: compound at final concentration of 100 uM; immobilised GST-KRAS166 (G12V) GPPNHP, GST reference channel.
T1 construct: made in house; host or cells: E. coli C41(DE3)
Assay type: binding
Procedure: For SPR assays pGEX-KRAS(G12V) plasmid was transformed into E. coli C41(DE3). Bacterial cells were cultured at 37° C. to an OD600 of 0.6 and induced with IPTG (final 0.1 mM) at 18° C. overnight. The GST fusion proteins were extracted from bacteria pellets after cell disruption in 140 mM NaCl, 2.7 mM KCl, […], 1.8 mM KH2PO4, 1 mM EDTA, 2 mM MgCl2 pH 7.4 and purified by glutathione-sepharose column chromatography (GE Healthcare), eluting with 50 mM Tris-HCl pH8.0, 10 mM reduced glutathione, 1 mM DTT, 2 mM MgC2. The eluted proteins were dialysed against 50 mM Tris-HCl pH8.0, 1 mM DTT, 2 mM MgCl2 and concentrated to 10 mg/ml using a Biomax-30 […]-15 centrifugal filter device (Millipore). Purified KRAS protein was loaded with GPPNHP as described elsewhere (Pacold et al., 2000). Loaded protein was then purified by gel filtration on a HiLoad Superdex-75 HR column (GE Healthcare) in 1×PBS pH7.4, 5 mM MgCl2 and concentrated for storage.
To a previously immobilized CM5 chip (GE Healthcare BR-1005-30) with anti GST antibody via amine coupling method, GST in channel 1 and GST-human KRas166 (G12V) GPPNHP in channel 2 were immobilised. GST was immobilised between 2,000 and 5,000 Response units. KRAS166 (G12V) was immobilized between 10,000 to 15,000 Response Units.
In a 96 well plate, compounds were diluted in […], 5 mM MgCl2 and 5% DMSO Buffer to a final concentration of 100 uM. DCAI was used as positive control. Experiment also included a solvent correction curve for 5% DMSO. Screening and evaluation of the protein immobilization and the compounds screening was done accordingly to the BIACORE T200 control and evaluation software.
Protein immobilisation: 10,000 RU; average fragment 300 Da in size. Rmax=(MWA/MWL)×RL×SM MWA is the molecular weight of the analyte in Da MWL is the molecular weight of the ligand in Da RL is the immobilization level in RU SM is the molar stoichiometry (assume 1:1) Rmax=300/47,500×10,000×1 Rmax=63 RU. Cell Viability Assay protocols

SPR Response Units [Response Units]	Compound
25	O=C(NC[C@@H]1COc2ccc(OCc3ccccc3)cc2O1)C1CCOCC1 [Example 5, Tetrahydro-pyran-4-carboxylic acid ((R)-7-benzyloxy-2,3-dihydro-benzo[1,4]dioxin-2-ylmethyl)-amide]
21	CN(C)CCC(=O)NC[C@@H]1COc2ccc(OCc3ccccc3)cc2O1 [Example 6, N-((R)-7-Benzyloxy-2,3-dihydro-benzo[1,4]dioxin-2-ylmethyl)-3-dimethylamino-propionamide]
24	CN1CCC(CC(=O)NC[C@@H]2COc3ccc(OCc4ccccc4)cc3O2)CC1 [Example 8, N-((R)-7-Benzyloxy-2,3-dihydro-benzo[1,4]dioxin-2-ylmethyl)-2-(1-methyl-piperidin-4-yl)-acetamide]
68	O=C(Cc1cccnc1)NC[C@@H]1COc2ccc(OCc3ccccc3)cc2O1 [Example 11, N-((R)-7-Benzyloxy-2,3-dihydro-benzo[1,4]dioxin-2-ylmethyl)-2-pyridin-3-yl-acetamide]
53	Cc1n[nH]c(C)c1CC(=O)NC[C@@H]1COc2ccc(OCc3ccccc3)cc2O1 [Example 12, N-((R)-7-Benzyloxy-2,3-dihydro-benzo[1,4]dioxin-2-ylmethyl)-2-(3,5-dimethyl-1H-pyrazol-4-yl)-acetamide]
24	NC(=O)CN1CCC(C(=O)NC[C@@H]2COc3ccc(OCc4ccccc4)cc3O2)CC1 [Example 14, 1-Carbamoylmethyl-piperidine-4-carboxylic acid ((R)-7-benzyloxy-2,3-dihydro-benzo[1,4]dioxin-2-ylmethyl)-amide]
33	O=C(NC[C@@H]1COc2ccc(OCc3ccccc3)cc2O1)C1CCN(Cc2ccco2)CC1 [Example 15, 1-Furan-2-ylmethyl-piperidine-4-carboxylic acid ((R)-7-benzyloxy-2,3-dihydro-benzo[1,4]dioxin-2-ylmethyl)-amide]
25	O=C(CC1CCNCC1)NC[C@@H]1COc2ccc(OCc3ccccc3)cc2O1 [Example 16, N-((R)-7-Benzyloxy-2,3-dihydro-benzo[1,4]dioxin-2-ylmethyl)-2-piperidin-4-yl-acetamide]
22	O=C(NC[C@@H]1COc2ccc(OCc3ccccc3)cc2O1)C1CCNCC1 [Example 17, Piperidine-4-carboxylic acid ((R)-7-benzyloxy-2,3-dihydro-benzo[1,4]dioxin-2-ylmethyl)-amide]
40	O=C(NC[C@@H]1COc2ccc(OCc3cccnc3)cc2O1)c1ncco1 [Example 19, Oxazole-2-carboxylic acid [(R)-7-(pyridin-3-ylmethoxy)-2,3-dihydro-benzo[1,4]dioxin-2-ylmethyl]-amide]
40	O=C(NC[C@@H]1COc2ccc(OCc3cn[nH]c3)cc2O1)c1ncco1 [Example 20, Oxazole-2-carboxylic acid [(R)-7-(1H-pyrazol-4-ylmethoxy)-2,3-dihydro-benzo[1,4]dioxin-2-ylmethyl]-amide]
9	CN1CCC(COc2ccc3c(c2)O[C@H](CNC(=O)c2ncco2)CO3)CC1 [Example 21, Oxazole-2-carboxylic acid [(R)-7-(1-methyl-piperidin-4-ylmethoxy)-2,3-dihydro-benzo[1,4]dioxin-2-ylmethyl]-amide]
45	CN1CCN(Cc2ccc(C(=O)NC[C@@H]3COc4ccc(OCc5cncc(Cl)c5)cc4O3)o2)CC1 [Example 25, 5-(4-Methyl-piperazin-1-ylmethyl)-furan-2-carboxylic acid [(R)-7-(5-chloro-pyridin-3-ylmethoxy)-2,3-dihydro-benzo[1,4]dioxin-2-ylmethyl]-amide]
48	CN1CCN(Cc2ccc(C(=O)NC[C@@H]3COc4ccc(OCc5ccc(Cl)cn5)cc4O3)o2)CC1 [Example 26, 5-(4-Methyl-piperazin-1-ylmethyl)-furan-2-carboxylic acid [(R)-7-(5-chloro-pyridin-2-ylmethoxy)-2,3-dihydro-benzo[1,4]dioxin-2-ylmethyl]-amide]
23	CC(=O)N1CCC(NC[C@@H]2COc3ccc(OCc4ccccc4)cc3O2)CC1 [Example 34, 1-{4-[((R)-7-Benzyloxy-2,3-dihydro-benzo[1,4]dioxin-2-ylmethyl)-amino]-piperidin-1-yl}-ethanone]
24	c1ccc(COc2ccc3c(c2)O[C@H](CNC2CCc4ccccc42)CO3)cc1 (stereo partly drawn) [Example 48, ((R)-7-Benzyloxy-2,3-dihydro-benzo[1,4]dioxin-2-ylmethyl)-indan-1-yl-amine]
67	CNC(=O)C(NC[C@@H]1COc2ccc(OCc3ccccc3)cc2O1)c1ccccc1 (stereo partly drawn) [Example 49, 2-[((R)-7-Benzyloxy-2,3-dihydro-benzo[1,4]dioxin-2-ylmethyl)-amino]-N-methyl-2-phenyl-acetamide]
29	c1ccc(COc2ccc3c(c2)O[C@H](CNCC2COCCN2)CO3)cc1 (stereo partly drawn) [Example 57, ((R)-7-Benzyloxy-2,3-dihydro-benzo[1,4]dioxin-2-ylmethyl)-morpholin-3-ylmethyl-amine]
79	O=C(C1COc2ccc(OCc3ccccc3)cc2O1)N1CCN(Cc2ccncc2)CC1 (centres unmarked) [Example 63, (7-Benzyloxy-2,3-dihydro-benzo[1,4]dioxin-2-yl)-(4-pyridin-4-ylmethyl-piperazin-1-yl)-methanone]
36	O=C(C1COc2ccc(OCc3ccccc3)cc2O1)N1CCN(CC2CCOCC2)CC1 (centres unmarked) [Example 64, (7-Benzyloxy-2,3-dihydro-benzo[1,4]dioxin-2-yl)-[4-(tetrahydro-pyran-4-ylmethyl)-piperazin-1-yl]-methanone]
46	O=C(NCc1ccc(CN2CCOCC2)cc1)C1COc2ccc(OCc3ccccc3)cc2O1 (centres unmarked) [Example 65, 7-Benzyloxy-2,3-dihydro-benzo[1,4]dioxine-2-carboxylic acid 4-morpholin-4-ylmethyl-benzylamide]
53	O=C(NCc1cccc(CN2CCOCC2)c1)C1COc2ccc(OCc3ccccc3)cc2O1 (centres unmarked) [Example 66, 7-Benzyloxy-2,3-dihydro-benzo[1,4]dioxine-2-carboxylic acid 3-morpholin-4-ylmethyl-benzylamide]
49	O=C(NCc1cccnc1)C1COc2ccc(OCc3ccccc3)cc2O1 (centres unmarked) [Example 67, 7-Benzyloxy-2,3-dihydro-benzo[1,4]dioxine-2-carboxylic acid (pyridin-3-ylmethyl)-amide]
57	O=C(NCc1ccncc1)C1COc2ccc(OCc3ccccc3)cc2O1 (centres unmarked) [Example 68, 7-Benzyloxy-2,3-dihydro-benzo[1,4]dioxine-2-carboxylic acid (pyridin-4-ylmethyl)-amide]
7	O=C1CC(CNC(=O)C2COc3ccc(OCc4ccccc4)cc3O2)CCN1 (centres unmarked) [Example 71, 7-Benzyloxy-2,3-dihydro-benzo[1,4]dioxine-2-carboxylic acid (2-oxo-piperidin-4-ylmethyl)-amide]
12	O=C(NCc1ccnc(F)c1)C1COc2ccc(OCc3ccccc3)cc2O1 (centres unmarked) [Example 72, 7-Benzyloxy-2,3-dihydro-benzo[1,4]dioxine-2-carboxylic acid (2-fluoro-pyridin-4-ylmethyl)-amide]
33	O=C(NCc1cn[nH]c1)C1COc2ccc(OCc3ccccc3)cc2O1 (centres unmarked) [Example 73, 7-Benzyloxy-2,3-dihydro-benzo[1,4]dioxine-2-carboxylic acid (1H-pyrazol-4-ylmethyl)-amide]
51	N[C@H]1CC[C@@H](NC(=O)C2COc3ccc(OCc4ccccc4)cc3O2)CC1 (some centres unmarked) [Example 75, 7-Benzyloxy-2,3-dihydro-benzo[1,4]dioxine-2-carboxylic acid (4-amino-cyclohexyl)-amide]
48	O=C(NCC1COCCN1)C1COc2ccc(OCc3ccccc3)cc2O1 (centres unmarked) [Example 76, 7-Benzyloxy-2,3-dihydro-benzo[1,4]dioxine-2-carboxylic acid (morpholin-3-ylmethyl)-amide]
